Numbers after ± are expanded uncertainties.
Assay: molar heat capacity at constant pressure
Settings: Crystal, Small (less than 1 g) adiabatic calorimetry

C[N+](C)(C)C[C@H](O)CC(=O)[O-] [(R)-3-hydroxy-4-(trimethylammonio)butanoate]
Settings	molar heat capacity at constant pressure [J/K/mol]
5 K, 101.33 kPa	0.29 ± 0.023
6.08 K, 100 kPa	0.53 ± 0.03
6.27 K, 100 kPa	0.571 ± 0.032
6.41 K, 100 kPa	0.622 ± 0.034
6.56 K, 100 kPa	0.669 ± 0.035
6.69 K, 100 kPa	0.727 ± 0.038
6.83 K, 100 kPa	0.774 ± 0.039
6.95 K, 100 kPa	0.787 ± 0.04
7.08 K, 100 kPa	0.832 ± 0.042
7.19 K, 100 kPa	0.851 ± 0.043
7.48 K, 100 kPa	0.985 ± 0.048
7.82 K, 100 kPa	1.107 ± 0.053
8.18 K, 100 kPa	1.278 ± 0.06
8.52 K, 100 kPa	1.441 ± 0.066
8.75 K, 100 kPa	1.53 ± 0.07
9.06 K, 100 kPa	1.689 ± 0.076
9.34 K, 100 kPa	1.836 ± 0.082
9.62 K, 100 kPa	2.018 ± 0.09
9.93 K, 100 kPa	2.207 ± 0.097
10 K, 101.33 kPa	2.25 ± 0.099
10.24 K, 100 kPa	2.402 ± 0.1
10.56 K, 100 kPa	2.616 ± 0.11
10.88 K, 100 kPa	2.869 ± 0.12
11.21 K, 100 kPa	3.127 ± 0.14
11.62 K, 100 kPa	3.417 ± 0.15
11.9 K, 100 kPa	3.675 ± 0.16
12.69 K, 100 kPa	4.369 ± 0.19
13.96 K, 100 kPa	5.657 ± 0.24
15 K, 101.33 kPa	6.89 ± 0.29
15.22 K, 100 kPa	7.205 ± 0.3
16.5 K, 100 kPa	8.836 ± 0.37
17.79 K, 100 kPa	10.57 ± 0.44
19.1 K, 100 kPa	12.27 ± 0.51
20 K, 101.33 kPa	13.41 ± 0.55
20.43 K, 100 kPa	13.99 ± 0.19
22.35 K, 100 kPa	16.18 ± 0.22
24.86 K, 100 kPa	19.02 ± 0.24
25 K, 101.33 kPa	19.34 ± 0.25
27.27 K, 100 kPa	21.98 ± 0.27
29.7 K, 100 kPa	24.73 ± 0.29
30 K, 101.33 kPa	25.01 ± 0.3
32.15 K, 100 kPa	27.39 ± 0.32
34.61 K, 100 kPa	30.12 ± 0.35
35 K, 101.33 kPa	30.61 ± 0.36
37.06 K, 100 kPa	32.92 ± 0.38
39.52 K, 100 kPa	35.77 ± 0.41
40 K, 101.33 kPa	36.27 ± 0.41
41.98 K, 100 kPa	38.6 ± 0.26
44.45 K, 100 kPa	41.3 ± 0.27
45 K, 101.33 kPa	41.94 ± 0.28
46.92 K, 100 kPa	43.9 ± 0.29
49.4 K, 100 kPa	46.7 ± 0.3
50 K, 101.33 kPa	47.51 ± 0.31
51.56 K, 100 kPa	49.36 ± 0.32
53.43 K, 100 kPa	51.37 ± 0.33
55.31 K, 100 kPa	53.34 ± 0.34
57.23 K, 100 kPa	55.32 ± 0.35
59.08 K, 100 kPa	57.13 ± 0.36
60 K, 101.33 kPa	57.97 ± 0.36
60.96 K, 100 kPa	58.68 ± 0.36
62.84 K, 100 kPa	60.64 ± 0.37
64.71 K, 100 kPa	62.32 ± 0.38
66.57 K, 100 kPa	64.28 ± 0.39
68.43 K, 100 kPa	65.98 ± 0.4
70 K, 101.33 kPa	67.35 ± 0.41
70.29 K, 100 kPa	67.73 ± 0.41
72.16 K, 100 kPa	69.2 ± 0.42
74.04 K, 100 kPa	70.9 ± 0.43
75.9 K, 100 kPa	72.29 ± 0.44
77.76 K, 100 kPa	74.17 ± 0.45
79.61 K, 100 kPa	75.69 ± 0.45
80 K, 101.33 kPa	75.9 ± 0.46
81.77 K, 100 kPa	77.54 ± 0.46
84.24 K, 100 kPa	79.31 ± 0.47
84.82 K, 100 kPa	79.43 ± 0.47
86.69 K, 100 kPa	81.13 ± 0.48
88.65 K, 100 kPa	82.96 ± 0.49
90 K, 101.33 kPa	83.98 ± 0.51
92.22 K, 100 kPa	85.77 ± 0.52
95.79 K, 100 kPa	88.51 ± 0.53
99.36 K, 100 kPa	91.34 ± 0.54
100 K, 101.33 kPa	91.81 ± 0.54
102.92 K, 100 kPa	94.28 ± 0.56
106.48 K, 100 kPa	96.97 ± 0.57
110 K, 101.33 kPa	99.54 ± 0.58
110.02 K, 100 kPa	99.66 ± 0.58
113.57 K, 100 kPa	102.4 ± 0.6
117.1 K, 100 kPa	105 ± 0.6
120 K, 101.33 kPa	107.5 ± 0.6
120.63 K, 100 kPa	107.7 ± 0.6
124.16 K, 100 kPa	110.4 ± 0.6
127.68 K, 100 kPa	113 ± 0.6
130 K, 101.33 kPa	114.7 ± 0.7
131.19 K, 100 kPa	115.4 ± 0.7
134.7 K, 100 kPa	117.9 ± 0.7
138.2 K, 100 kPa	120.5 ± 0.7
140 K, 101.33 kPa	121.6 ± 0.7
141.66 K, 100 kPa	122.9 ± 0.7
145.14 K, 100 kPa	125.4 ± 0.7
148.61 K, 100 kPa	127.8 ± 0.7
150 K, 101.33 kPa	128.6 ± 0.7
152.07 K, 100 kPa	130.3 ± 0.7
155.53 K, 100 kPa	132.7 ± 0.7
158.97 K, 100 kPa	135 ± 0.8
160 K, 101.33 kPa	135.8 ± 0.8
162.41 K, 100 kPa	137.4 ± 0.8
165.85 K, 100 kPa	139.7 ± 0.8
169.27 K, 100 kPa	142.1 ± 0.8
170 K, 101.33 kPa	142.8 ± 0.8
172.68 K, 100 kPa	144.4 ± 0.8
176.08 K, 100 kPa	146.7 ± 0.8
179.48 K, 100 kPa	149 ± 0.8
180 K, 101.33 kPa	149.2 ± 0.8
182.87 K, 100 kPa	151.1 ± 0.8
186.24 K, 100 kPa	153.1 ± 0.8
189.61 K, 100 kPa	154.7 ± 0.8
190 K, 101.33 kPa	154.7 ± 0.8
192.97 K, 100 kPa	156.2 ± 0.9
196.22 K, 100 kPa	157.8 ± 0.9
199.57 K, 100 kPa	159.7 ± 0.9
200 K, 101.33 kPa	160.1 ± 0.9
202.89 K, 100 kPa	161.9 ± 0.9
203.31 K, 100 kPa	162.1 ± 0.9
206.21 K, 100 kPa	163.8 ± 0.9
206.83 K, 100 kPa	163.9 ± 0.9
209.52 K, 100 kPa	165.7 ± 0.9
210 K, 101.33 kPa	166 ± 0.9
210.24 K, 100 kPa	166.4 ± 0.9
212.83 K, 100 kPa	167.6 ± 0.9
213.66 K, 100 kPa	168.2 ± 0.9
216.13 K, 100 kPa	169.6 ± 0.9
219.43 K, 100 kPa	171.7 ± 0.9
220 K, 101.33 kPa	172.2 ± 0.9
222.71 K, 100 kPa	173.9 ± 0.9
225.97 K, 100 kPa	176 ± 1
229.25 K, 100 kPa	178.3 ± 1
230 K, 101.33 kPa	178.6 ± 1
232.54 K, 100 kPa	180.4 ± 1
235.81 K, 100 kPa	182.5 ± 1
239.07 K, 100 kPa	184.6 ± 1
240 K, 101.33 kPa	185.1 ± 1
242.32 K, 100 kPa	186.7 ± 1
245.56 K, 100 kPa	188.8 ± 1
248.62 K, 100 kPa	190.6 ± 1
250 K, 101.33 kPa	191.6 ± 1
251.85 K, 100 kPa	192.6 ± 1
255.07 K, 100 kPa	194.8 ± 1
257.5 K, 100 kPa	196.2 ± 1.1
260 K, 101.33 kPa	198.2 ± 1.1
260.89 K, 100 kPa	199.2 ± 1.1
264.26 K, 100 kPa	200.6 ± 1.1
267.64 K, 100 kPa	203.5 ± 1.1
270 K, 101.33 kPa	205 ± 1.1
271 K, 100 kPa	205.7 ± 1.1
273.15 K, 101.33 kPa	207.2 ± 1.1
274.35 K, 100 kPa	208.2 ± 1.1
277.7 K, 100 kPa	210.3 ± 1.1
280 K, 101.33 kPa	211.9 ± 1.1
281.03 K, 100 kPa	212.6 ± 1.1
284.35 K, 100 kPa	214.7 ± 1.1
287.63 K, 100 kPa	217.8 ± 1.2
290 K, 101.33 kPa	218.9 ± 1.2
290.92 K, 100 kPa	219.8 ± 1.2
294.21 K, 100 kPa	221 ± 1.2
297.46 K, 100 kPa	224.2 ± 1.2
298.15 K, 101.33 kPa	224.7 ± 1.2
300 K, 101.33 kPa	226 ± 1.2
300.21 K, 100 kPa	225.9 ± 1.2
302.94 K, 100 kPa	227.7 ± 1.2
306.14 K, 100 kPa	230.3 ± 1.2
309.33 K, 100 kPa	232.6 ± 1.2
310 K, 101.33 kPa	233.1 ± 1.2
312.5 K, 100 kPa	234.8 ± 1.2
315.65 K, 100 kPa	237.1 ± 1.2
318.79 K, 100 kPa	239.5 ± 1.3
320 K, 101.33 kPa	240.1 ± 1.3
321.91 K, 100 kPa	241.3 ± 1.3
325.01 K, 100 kPa	243.5 ± 1.3
328.09 K, 100 kPa	245.8 ± 1.3
330 K, 101.33 kPa	247.2 ± 1.3
331.16 K, 100 kPa	248.1 ± 1.3
334.21 K, 100 kPa	250.7 ± 1.3
337.21 K, 100 kPa	251.9 ± 1.3
340 K, 101.33 kPa	254.2 ± 1.3
340.22 K, 100 kPa	254.1 ± 1.3
343.21 K, 100 kPa	256.3 ± 1.3
346.17 K, 100 kPa	258.6 ± 1.4
350 K, 101.33 kPa	261 ± 1.4

Reference: the NIST ThermoML archive (doi:10.1016/j.jct.2018.12.006)
